Several values for one entry are separate records, joined by “and”; a condition that tells them apart may be missing. Equal entries are not always repeated.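 Where inhibition never reached the appropriate level, the endpoint shown equals the highest concentration tested. Otherwise, values were interpolated linearly from a five-concentration, 48-hour dose response in 96-well plates. GI50 marks 50% less growth. TGI is the concentration that stops growth completely.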
Columns and labels:
Assay in all cases: NCI-60 cell line screen, 48 h
A498 renal = system: A498 renal
IGROV1 ovarian = system: IGROV1 ovarian
EKVX NSCLC = system: EKVX NSCLC
UO-31 renal = system: UO-31 renal
NCI-H522 lung = system: NCI-H522 lung
MCF7 breast = system: MCF7 breast
NCI/ADR-RES ovarian = system: NCI/ADR-RES ovarian
SK-MEL-28 melanoma = system: SK-MEL-28 melanoma
BT-549 breast = system: BT-549 breast
MDA-MB-435 = system: MDA-MB-435

Row | Compound | GI50 (A498 renal) | TGI (A498 renal) | GI50 (IGROV1 ovarian) | TGI (IGROV1 ovarian) | GI50 (EKVX NSCLC) | TGI (EKVX NSCLC) | GI50 (UO-31 renal) | TGI (UO-31 renal) | GI50 (NCI-H522 lung) | TGI (NCI-H522 lung) | GI50 (MCF7 breast) | TGI (MCF7 breast) | GI50 (NCI/ADR-RES ovarian) | TGI (NCI/ADR-RES ovarian) | GI50 (SK-MEL-28 melanoma) | TGI (SK-MEL-28 melanoma) | GI50 (BT-549 breast) | TGI (BT-549 breast) | GI50 (MDA-MB-435) | TGI (MDA-MB-435)
1 | O=C1COCCN1c1ccc(NCc2cn(C(=O)c3ccc(Cl)cc3)c3ccccc23)cc1 | 0.0306 µM | 0.142 µM | 0.252 µM | 8.51 µM | 17.2 µM | > 100 µM | 2.09 µM | 16.5 µM | 5.12 µM | 35.9 µM | 0.293 µM | 15 µM | 5.77 µM | 55.8 µM | 17.8 µM | 80.9 µM | 4.37 µM | 53.7 µM | 16.4 µM | 50.1 µM
2 | Cc1cc(Cl)ccc1Nc1nc(C(F)(F)F)ccc1C(=O)Nc1cccc(C(F)(F)F)c1 | 2.79 µM | 7.43 µM | 3.88 µM | 22.7 µM | 1.85 µM | 11.1 µM | 3.71 µM | 16 µM | 3.47 µM | 13.4 µM | 2.28 µM | 7.71 µM | 3.38 µM | 14.7 µM | 4.79 µM | 16.6 µM | 3.76 µM | 15.7 µM | 3.76 µM | 16.1 µM
3 | O=C1C=C(OCCCl)C(=O)c2c(O)ccc(O)c21 | 2.38 µM | 2.55 µM and 4.25 µM | – | 3.43 µM and 3.66 µM | – | 3.36 µM and 3.73 µM | 1.95 µM | 2.76 µM and 4.5 µM | 1.57 µM | 4.44 µM and 3.14 µM | 0.399 µM | 0.472 µM and 1.75 µM | 9.41 µM | – | 2.08 µM | – | – | 0.477 µM | 0.157 µM | 0.389 µM and 0.294 µM
4 | O=C1NC(c2ccccc2)N=C2Oc3ccccc3C=C12 (stereo not given) | – | > 81.8 µM | – | > 74.4 µM | – | > 100 µM | – | > 100 µM | – | > 100 µM | – | > 100 µM | – | > 31.3 µM | – | > 100 µM | – | > 100 µM | – | 0.138 µM
5 | CN(CCCN(C)CCC1CCCCC1)CCC1CCCCC1 | 5.14 µM | 13.8 µM | 1.09 µM | 5.54 µM | 2.24 µM | 11.1 µM | 1.58 µM | 14.4 µM | 1.77 µM | 4.36 µM | 1.62 µM | 3.28 µM | 6.6 µM | 20.1 µM | 1.91 µM | 3.41 µM | 2.64 µM | 11.1 µM | 0.755 µM | 2.27 µM
6 | COc1cc2nncc(SCc3ccc(Cl)c(Cl)c3)c2cc1OC | – | > 100 µM | – | > 100 µM | – | > 100 µM | – | > 100 µM | – | > 100 µM | – | > 100 µM | – | > 100 µM | – | > 100 µM | – | > 100 µM | – | > 100 µM
7 | c1ccc(/C(=N\Nc2ccc3ccccc3n2)c2ccccn2)cc1 | 2.92 µM | 80.4 µM | 0.433 µM | 3.23 µM | 0.281 µM | 8.39 µM | 0.361 µM | 4.89 µM | 0.412 µM | 21.7 µM | 0.907 µM | 11.5 µM | 0.387 µM | 14.2 µM | 2.66 µM | 39 µM | 0.116 µM | 1.72 µM | 0.66 µM | 16.7 µM
8 | CCc1nc(N)nc(N)c1C#CC(C)c1cc(-c2ccnc(C)c2)c2oc(C)nc2c1 (stereo not given) | 0.117 µM | 4.89 µM | < 0.01 µM | 6.23 µM | 0.451 µM | 15 µM | 0.0181 µM | 11.5 µM | 0.0222 µM | 9.66 µM | 0.0118 µM | 11.9 µM | 0.0146 µM | 10.1 µM | 0.106 µM | 14.3 µM | 1.03 µM | 8.31 µM | < 0.01 µM | 12.3 µM
9 | Clc1ccc(/C=C/c2nc(Cl)c(-c3ccc(Cl)cc3)c(Cl)n2)cc1 | – | > 100 µM | – | > 100 µM | – | > 100 µM | – | 43.2 µM | – | > 100 µM | – | > 100 µM | – | > 100 µM | – | > 100 µM | – | > 100 µM | – | > 100 µM
10 | COC1OC(C(C)O)C2OC(C)(C)OC12 (stereo not given) | – | > 100 µM | – | > 100 µM | – | > 100 µM | – | > 100 µM | – | > 100 µM | – | > 100 µM | – | > 100 µM | – | > 100 µM | – | > 100 µM | – | > 100 µM
11 | c1ccc2c(CN3CCC(C4CCN(Cc5cccc6ccccc56)CC4)CC3)cccc2c1 | 7.34 µM | > 72.8 µM and 86 µM | 32.2 µM and > 79.4 µM | > 100 µM | 35.1 µM and > 91.4 µM | > 100 µM | 3.84 µM and 29.4 µM | 16.2 µM and > 100 µM | – | 26.3 µM and 23.4 µM | – | > 73.7 µM | – | > 100 µM | 1.48 µM and 3.1 µM | 2.85 µM and 8.19 µM | – | > 100 µM | – | 11.4 µM
12 | Cc1cn(Cc2ccccc2CCl)c(=O)n(Cc2ccccc2CCl)c1=O | 10.6 µM | 27.4 µM | 0.53 µM | 2.25 µM | 2.26 µM | 5.13 µM | 1.65 µM | 3.17 µM | 1.3 µM | 2.94 µM | 1.36 µM | 4.77 µM | 2.22 µM | 6.36 µM | 2.21 µM | 5.49 µM | 1.85 µM | 3.52 µM | 1.97 µM | 4.07 µM
